Laboratory results published in patent US9701660B2, “2,6-diaminopyridine compounds suitable for treating diseases associated with amyloid or amyloid-like proteins or for treating or preventing ocular diseases or conditions associated with a pathological abnormality/change in the tissue of the visual system” (AC Immune S.A., priority 2009, dated 2017).
Where “and” joins values, the source holds several entries; their conditions need not be identical. Equal entries are not always repeated.

Assays:
[1] = system: retinal ganglion cells (RGCs); assay: Rat model of chronic ocular hypertension (OHT)/glaucoma; format: in vivo, Dark Agouti rats; details: for number of viable RGCs: 3 weeks after intra-vitreal injection in the OHT eye, in comparison to the control group, p<0.001; for reduction of intraocular pressure: at 3 weeks, Tonopen
Method: A rat model of chronic ocular hypertension (OHT)/glaucoma was created by injecting hypertonic saline into the episcleral veins of one eye of Dark Agouti rats. 18 rats received an intra-vitreal injection containing a volume of 5 μL of compound 1 (ACI-260) at a concentration of 74 mg/L in the OHT eye. 18 rats served as negative control and received 5 μl of saline and 18 rats served as positive control and received 6 μL Congo Red (1.46 mg/mL). 6 animals/timepoint were euthanized at 3, 8 and 16 weeks after treatment.
Intraocular pressure (IOP) was measured using a Tonopen once every 4 weeks post dosing and prior to sacrifice (within 3 days). 5 to 7 days prior to sacrifice, animals were injected intra-cerebrally with 5 μL of 4% FluoroGold to label the retinal ganglion cells (RGCs). In order to quantify viable RGCs, images were processed using a specific system of image analysis software and viable RGCs were expressed per square millimeter.

[2] = target: T1, amyloid beta (Ab) 1-42 peptide (Homo sapiens, UniProt P05067); assay: Inhibition of amyloid beta (Ab) 1-42 peptide aggregation (thioflavin T spectrofluorescence assay); format: biochemical; details: mean of 2 experiments; Ab1-42 aggregation, 24 hrs at 37° C.; read-out: IC50 ThT-assay
T1 construct: amyloid beta (Ab) 1-42 peptide; purchased Bachem
T1 sequence (P05067 672-713 limits assumed): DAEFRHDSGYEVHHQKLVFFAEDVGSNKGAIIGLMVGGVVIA

[3] = Aqueous solubility in PBS (HPLC); format: physicochemical; details: for solubility at 24 h: PBS 1x, 24 hours at room temperature; for solubility in words, compared to compound 1: comparison
Method: Method for measuring the solubility:
• Plate shaker, Centrifuge (Eppendorf, 8 cm radius), HPLC (Dionex P580), Column: Agilent Zorbax Eclipse XDB-C18 rapid resolution (4.6×50 mm, […], Agilent), Uncoloured microtubes 1.5 mL (Eppendorf, 1.5 mL), Micropipettes […], Micropipettes […], Dulbecco's phosphate buffer, DMSO, ammonium formate, formic acid 98-100%, UP-H2O, acetonitrile HPLC grade, methanol GR analysis, PVDF membrane filter. 2. Method 2.1 Preparation of PBS 5× (Stored at 4° C.) and PBS1× for Analysis • PBS 5× • Dissolved the full content of PBS salt (D-5652-10L) in 2 L of UP-H2O. • PBS1× • Before analysis, dilute 5 fold the PBS 5× in order to prepare 30 mL of PBS1× and filter the solution using a syringe and any hydrophilic membrane e.g. PVDF membrane. 2.2 Preparation of HPLC Solvent (Stored at RT) • Solvent A: 13.3 mM ammonium formate/6.5 mM formic acid/UP-water
Dissolve 820±1 mg of ammonium formate and 245 μL of formic acid in 1000 mL of UP-H2O. • Solvent B: 6.0 mM ammonium formate/2.9 mM formic acid/90% acetonitrile/10% UP-water • Dissolve 378±1 mg of ammonium formate and 110 μL of formic acid in 900 mL acetonitrile and 100 mL of UP-H2O. 2.3 Preparation of the Stock Solution of the Compound • Dissolve compound in DMSO at a concentration of 25 mM (minimum […]). 2.4 Preparation of Standard Curve • Prepare 15 mL of methanol/H2O (6/4). • Prepare 5 standard calibrators: 250 μM, 200 μM, 50 μM, 12.5 μM and 3.13 μM in methanol/H2O (6/4). • Make preparations of each standard concentration in 1.5 microtubes.
• Transfer directly 250-300 μL from each microtube to an HPLC vial. • Run HPLC (from microtubes #6 to #1), using the following conditions:
C18 column, 0.7 mL/min, 20° C., UV detection at 254 nm, volume injection: 20 μL and one of the following gradients: […]
2.5. Preparation of the Sample for Aqueous Solubility • Prepare Samples of the Compound in Triplicates
• Shake it gently (350 rpm) for 24 hours at room temperature. • After the incubation time, centrifuge at 2500 g (5500 rpm) for 30 min. • Sample 200 μL of supernatant for HPLC analysis using the same conditions described in 2.4. 2.6. Data Treatment • Integrate area of each standard point peak at 254 nm. • Determine the standard curve for the compound by plotting the area vs. the theoretical concentration. Establish the standard curve equation based on a linear regression (with an intercept at 0, R^2≧0.90). y(area)=slope×x(concentration) • Calculate the average area of each triplicate prepared in aqueous phase.
The concentration of the compound in the supernatant is determined by the following formula: […]
The solubility of the compound is determined by the following formula: […]

[4] = target: T1, amyloid beta (Ab) 1-42 peptide; assay: Inhibition of amyloid beta (Ab) 1-42 peptide aggregation (thioflavin T spectrofluorescence assay); format: biochemical; details: for ThT assay at 330 mM % inhib.: small molecule to Ab1-42 10:1, 24 hrs at 37° C.; for biological activity (ThT assay) in words, compared to compound 1 / compounds according to the invention: comparison; for inhibition at 330 µM: mean of the two ThT assays at 330 µM, read-out: Mean % inhib.
Method: A number of small molecules were tested for their capacity to inhibit the aggregation of amyloid beta (Ab) 1-42 peptide using a thioflavin T spectrofluorescence assay.
Ab1-42 lyophilized powder (Bachem) was reconstituted in hexafluoroisopropanol (HFIP) to 1 mM. The peptide solution was sonicated for 15 min at room temperature, agitated overnight, and aliquots were placed in non-siliconized microcentrifuge tubes. The HFIP was then evaporated under a stream of argon. The resulting peptide film was dried under vacuum for 10 min, tightly sealed and stored at −80° C. until used.
Ab1-42 peptide film was dissolved in DMSO to reach 400 μM. Assay solution in PBS buffer was prepared in non-siliconized incubation tubes to reach the following concentrations: […] Ab1-42, 10 μM thioflavin T (ThT), and 12.8% DMSO. Therefore, the final molar ratio of small molecule to Ab1-42 was 10:1. A positive control without a small molecule was prepared to measure maximum RFU. A negative control without Ab1-42 was prepared for each small molecule. 3-Aminopyrazole trimer (Trimer) was tested in all assays to ascertain reproducibility between independent experiments. The solutions were incubated for 24 hrs at 37° C., and the spectrofluorescence (relative fluorescence units; RFU) read in six replicates in black 384-well assay plates (Perkin-Elmer) on a Perkin-Elmer FluoroCount spectrofluorometer. Inhibition of aggregation is expressed as mean % inhibition or ±1 standard deviation (SD) according to the following equation: % inhibition=(RFU of positive control−RFU of negative control)−(RFU of sample with Aβ-42−RFU of sample without Aβ1-42)×100 • (RFU of positive control−RFU of negative control)
Cut-off criteria for selection of functional molecules were defined at 50% inhibition capacity. Molecules showing an inhibition capacity over 70% were considered as very strong candidates.

[5] = PBS 1x (Dulbecco's phosphate buffer), aqueous buffer, kinetic from dmso stock, table with IC50
[6] = PBS 1x (Dulbecco's phosphate buffer), aqueous buffer, kinetic from dmso stock, table with % inhib.

Row | Compound | IC50 [2] | ThT assay at 330 mM % inhib. ([4]; experiment 1) | ThT assay at 330 mM % inhib. ([4]; experiment 2) | biological activity (ThT assay) in words, compared to compound 1 / compounds according to the invention [4] | solubility at 24 h [3, 6] | solubility in words, compared to compound 1 [3] | also measured
1 | CNc1cccc(NCCc2cccc(NCc3ccccn3)n2)n1 [Compound 2] | 12.9 µM | – | – | – | – | – | –
2 | CNc1cccc(NCCCc2cccc(NCCCc3ccccn3)n2)n1 [Compound 4] | 16.5 µM | – | – | – | – | – | solubility at 24 h [3, 5]: 0.038 mg/mL; solubility at 24 h ([3]; table with IC50): 103 µM
3 | CNc1cccc(NCCc2ccccn2)n1 [Compound 6] | – | 68.4% | 59.0% | significantly reduced activity | – | – | inhibition at 330 µM [4]: 63.7%
4 | CNc1cccc(CCNc2cccc(NC)n2)n1 [Compound 7] | – | 77.6% | 70.3% | significantly reduced activity | 0.05 mg/mL | – | solubility at 24 h ([3]; table with % inhib.): 195 µM; inhibition at 330 µM [4]: 74%
5 | CCCNc1ccc(NCc2ccc(NCc3ccc(NCCC)nc3)nc2)nc1 [Compound 8, reference compound] | – | 73.3% | 80.7% | – | 1 µM and 0.4 µg/mL | significantly worse | –
6 | FC(F)(CNc1cccc(NCC(F)(F)c2ccc3c(n2)NCCC3)n1)c1ccccn1 [Compound 12] | – | 56.4% | 63.7% | worse | 21.5 µM and 9.5 µg/mL | worse | –
7 | CNc1cccc(CCNc2cccc(CCN(c3ccccn3)c3ccccn3)n2)n1 [Compound 13] | 298 µM | – | – | – | – | – | –
8 | Nc1c(/N=N/c2ccc(-c3ccc(/N=N/c4cc(S(=O)(=O)O)c5ccccc5c4N)cc3)cc2)cc(S(=O)(=O)O)c2ccccc12 [Congo Red, reference compound] | – | – | – | – | – | – | number of viable RGCs [1]: significantly increased; reduction of intraocular pressure [1]: not observed

Further lines, with some results ahead:

Row | IC50 [2] | ThT assay at 330 mM % inhib. ([4]; experiment 1) | ThT assay at 330 mM % inhib. ([4]; experiment 2) | biological activity (ThT assay) in words, compared to compound 1 / compounds according to the invention [4] | solubility at 24 h [3, 6] | solubility in words, compared to compound 1 [3] | Compound | also measured
9 | 25.5 µM | 88.8% | 79.6% | – | – | – | CNc1cccc(NCCc2cccc(NCCc3ccccn3)n2)n1 [Compound 1] | number of viable RGCs [1]: significantly increased; reduction of intraocular pressure [1]: not observed; solubility at 24 h [3, 5]: 857 µM and 298 µg/mL
10 | 35.3 µM | – | – | – | – | – | CNc1cccc(CCNc2cccc(NCCc3ccccn3)n2)n1 [Compound 3] | solubility at 24 h [3, 5]: 206 µM and 71 µg/mL
11 | 140 µM | – | – | significantly decreased | – | – | CNc1cccc(CCNc2cccc(CCNc3ccccn3)n2)n1 [Compound 5] | –
12 | – | 91.8% | 93.4% | comparable activity to compound 1 | 154 µM and 57 µg/mL | worse | c1ccc(CCNc2cccc(NCCc3ccc4c(n3)NCCC4)n2)nc1 [Compound 9] | –
13 | – | 89.6% | 77.6% | comparable activity to compound 1 | – | worse | FC(F)(CNc1cccc(NCCc2ccccn2)n1)c1ccc2c(n1)NCCC2 [Compound 10] | –
14 | – | 95.3% | 94.4% | comparable activity to compound 1 | 119 µM and 48 µg/mL | worse | FC(F)(CNc1cccc(NCCc2ccc3c(n2)NCCC3)n1)c1ccccn1 [Compound 11] | –
